Test results from patent publication US10392368B2, “Pyrazolo and triazolo bicyclic compounds as JAK kinase inhibitors” (THERAVANCE BIOPHARMA R&D IP, LLC, priority 2017, dated 2019).
Where two headings read alike, the source gives them in different places.

Columns and labels:
Tyk2 = molecular target: T1, Tyk2 (Homo sapiens, UniProt P29597); experiment: Biochemical Tyk2 kinase assay (LanthaScreen); conditions: for Ki: read-out: Tyk 2 (pKi) (converted)
T1 construct: GST; purchased Life Technologies
T1 sequence (P29597 whole entry): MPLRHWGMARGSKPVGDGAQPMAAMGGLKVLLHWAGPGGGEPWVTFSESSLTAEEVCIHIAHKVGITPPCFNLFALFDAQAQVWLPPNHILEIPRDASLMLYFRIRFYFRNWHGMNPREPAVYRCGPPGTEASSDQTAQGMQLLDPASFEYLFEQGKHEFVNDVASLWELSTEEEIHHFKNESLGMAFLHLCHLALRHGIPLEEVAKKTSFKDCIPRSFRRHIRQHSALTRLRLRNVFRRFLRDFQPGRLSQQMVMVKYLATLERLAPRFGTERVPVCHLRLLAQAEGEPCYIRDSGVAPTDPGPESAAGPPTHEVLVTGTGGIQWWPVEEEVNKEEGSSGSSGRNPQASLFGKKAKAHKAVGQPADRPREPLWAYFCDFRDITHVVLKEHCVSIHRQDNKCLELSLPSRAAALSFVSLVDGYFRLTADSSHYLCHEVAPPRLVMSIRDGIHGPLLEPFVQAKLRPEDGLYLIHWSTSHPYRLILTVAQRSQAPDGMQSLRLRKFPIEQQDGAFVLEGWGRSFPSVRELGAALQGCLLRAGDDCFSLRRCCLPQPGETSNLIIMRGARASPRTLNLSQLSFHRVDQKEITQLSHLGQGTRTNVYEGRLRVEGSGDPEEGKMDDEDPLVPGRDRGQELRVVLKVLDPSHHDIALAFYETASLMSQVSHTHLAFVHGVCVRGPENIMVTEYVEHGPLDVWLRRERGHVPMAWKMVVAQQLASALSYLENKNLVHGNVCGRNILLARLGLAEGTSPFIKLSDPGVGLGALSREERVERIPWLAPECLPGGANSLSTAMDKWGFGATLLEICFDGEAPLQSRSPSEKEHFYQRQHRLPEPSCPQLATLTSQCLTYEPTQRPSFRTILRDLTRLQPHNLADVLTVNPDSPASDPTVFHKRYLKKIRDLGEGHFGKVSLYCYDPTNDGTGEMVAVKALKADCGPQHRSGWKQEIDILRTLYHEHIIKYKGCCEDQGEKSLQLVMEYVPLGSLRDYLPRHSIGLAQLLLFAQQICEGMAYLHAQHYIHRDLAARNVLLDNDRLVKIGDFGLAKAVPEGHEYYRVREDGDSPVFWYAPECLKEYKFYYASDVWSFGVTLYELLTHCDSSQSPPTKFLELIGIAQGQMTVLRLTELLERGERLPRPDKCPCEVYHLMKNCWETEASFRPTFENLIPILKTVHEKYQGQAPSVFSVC
Procedure, shortened: (§1)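 Compounds were preincubated with the GST-tagged kinase and GFP-labelled STAT1 peptide for one hour before ATP initiated a one-hour reaction at ambient temperature. Phosphorylation was quantified by TR-FRET with a Tb-labelled pTyr701 antibody. Ki values were derived from IC50 using Cheng-Prusoff.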

JAK3 = molecular target: T2, JAK3 (Homo sapiens, UniProt P52333); experiment: Biochemical JAK3 kinase assay (LanthaScreen); design: GST; purchased Life Technologies; conditions: for Ki: read-out: JAK 3 (pKi) (converted)
T2 sequence (P52333 1-1124): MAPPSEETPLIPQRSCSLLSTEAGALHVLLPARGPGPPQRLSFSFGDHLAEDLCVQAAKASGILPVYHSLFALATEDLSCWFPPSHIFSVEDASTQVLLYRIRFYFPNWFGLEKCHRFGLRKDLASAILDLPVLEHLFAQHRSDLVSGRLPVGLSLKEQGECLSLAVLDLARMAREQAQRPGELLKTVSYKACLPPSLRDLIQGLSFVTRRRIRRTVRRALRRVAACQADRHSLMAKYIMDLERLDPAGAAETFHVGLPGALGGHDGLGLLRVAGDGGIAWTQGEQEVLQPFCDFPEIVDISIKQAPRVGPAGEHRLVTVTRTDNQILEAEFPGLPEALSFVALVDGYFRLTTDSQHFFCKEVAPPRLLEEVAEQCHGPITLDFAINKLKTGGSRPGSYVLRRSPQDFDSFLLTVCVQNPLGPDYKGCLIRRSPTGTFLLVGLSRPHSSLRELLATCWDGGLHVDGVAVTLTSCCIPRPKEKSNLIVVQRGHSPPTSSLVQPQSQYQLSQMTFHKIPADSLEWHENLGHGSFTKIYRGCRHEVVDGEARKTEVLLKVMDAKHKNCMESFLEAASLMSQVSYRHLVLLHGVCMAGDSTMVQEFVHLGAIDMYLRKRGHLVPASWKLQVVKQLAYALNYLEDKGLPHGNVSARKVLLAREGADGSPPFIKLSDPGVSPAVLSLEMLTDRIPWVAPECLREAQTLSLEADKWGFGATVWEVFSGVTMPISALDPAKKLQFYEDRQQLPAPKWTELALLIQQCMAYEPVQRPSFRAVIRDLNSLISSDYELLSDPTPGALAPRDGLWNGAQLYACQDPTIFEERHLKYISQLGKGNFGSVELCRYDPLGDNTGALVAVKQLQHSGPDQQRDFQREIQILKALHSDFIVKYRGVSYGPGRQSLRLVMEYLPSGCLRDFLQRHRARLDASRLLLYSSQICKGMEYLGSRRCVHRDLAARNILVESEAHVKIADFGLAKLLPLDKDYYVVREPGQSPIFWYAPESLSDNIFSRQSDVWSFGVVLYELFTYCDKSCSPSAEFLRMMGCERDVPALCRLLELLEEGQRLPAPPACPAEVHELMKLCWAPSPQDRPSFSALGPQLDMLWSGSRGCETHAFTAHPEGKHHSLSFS
Procedure, shortened: as §1

JAK1 = molecular target: T3, JAK1 (Homo sapiens, UniProt P23458); experiment: Biochemical JAK1 kinase assay (LanthaScreen); conditions: for Ki: read-out: JAK 1 (pKi) (converted)
T3 construct: GST; purchased Life Technologies
T3 sequence (P23458 whole entry): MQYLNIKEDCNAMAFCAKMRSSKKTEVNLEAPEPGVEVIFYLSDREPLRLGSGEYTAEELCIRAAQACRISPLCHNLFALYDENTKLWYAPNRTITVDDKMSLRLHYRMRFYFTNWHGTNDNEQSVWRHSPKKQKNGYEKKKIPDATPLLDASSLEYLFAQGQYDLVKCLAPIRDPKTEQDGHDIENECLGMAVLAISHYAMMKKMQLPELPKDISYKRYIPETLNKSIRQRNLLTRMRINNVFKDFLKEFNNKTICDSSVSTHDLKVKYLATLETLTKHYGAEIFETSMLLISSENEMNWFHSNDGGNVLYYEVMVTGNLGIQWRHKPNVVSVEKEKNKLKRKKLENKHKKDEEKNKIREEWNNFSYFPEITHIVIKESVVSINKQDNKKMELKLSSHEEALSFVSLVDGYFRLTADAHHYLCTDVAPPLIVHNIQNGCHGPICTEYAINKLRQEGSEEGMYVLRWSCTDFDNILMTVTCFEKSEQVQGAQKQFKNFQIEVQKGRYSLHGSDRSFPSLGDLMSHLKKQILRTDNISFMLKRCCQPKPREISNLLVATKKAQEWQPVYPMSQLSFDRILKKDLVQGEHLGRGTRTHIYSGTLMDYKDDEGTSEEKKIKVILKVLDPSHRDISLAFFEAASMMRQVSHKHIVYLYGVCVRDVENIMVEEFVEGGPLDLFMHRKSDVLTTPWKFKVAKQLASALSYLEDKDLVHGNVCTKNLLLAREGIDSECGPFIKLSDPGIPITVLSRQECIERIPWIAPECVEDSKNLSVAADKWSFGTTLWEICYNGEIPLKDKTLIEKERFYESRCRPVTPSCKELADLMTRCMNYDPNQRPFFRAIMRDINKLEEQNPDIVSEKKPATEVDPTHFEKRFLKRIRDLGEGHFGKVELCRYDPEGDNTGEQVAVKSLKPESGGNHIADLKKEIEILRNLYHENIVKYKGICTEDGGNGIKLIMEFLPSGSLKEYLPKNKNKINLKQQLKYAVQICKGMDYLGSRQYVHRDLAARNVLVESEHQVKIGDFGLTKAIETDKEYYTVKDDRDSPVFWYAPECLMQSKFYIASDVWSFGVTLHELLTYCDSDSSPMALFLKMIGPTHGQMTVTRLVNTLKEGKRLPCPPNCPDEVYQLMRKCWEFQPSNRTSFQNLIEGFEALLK
Procedure, shortened: as §1

[1] = tested on: IL-2 stimulated pSTAT5 in Tall-1 T cells; experiment: Cellular JAK3 potency assay: inhibition of IL-2 stimulated pSTAT5 in Tall-1 T cells; format: cell-based, human; conditions: for IC50: Homo sapiens, read-out: Tall-1 (pIC50) (converted)
Procedure, shortened: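 Tall-1 human T cells were preincubated with compound for 1 h at 37° C, then stimulated with IL-2 (300 ng/ml final) for 30 min. STAT5 phosphorylation in lysates was read by AlphaLisa bead emission, and IC50 from inhibition curves is given as pIC50 (mean±SD).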

JAK2 = molecular target: T4, JAK2 (Homo sapiens, UniProt O60674); experiment: Biochemical JAK2 kinase assay (LanthaScreen); conditions: for Ki: read-out: JAK 2 (pKi) (converted)
T4 construct: GST; purchased Life Technologies
T4 sequence (O60674 whole entry): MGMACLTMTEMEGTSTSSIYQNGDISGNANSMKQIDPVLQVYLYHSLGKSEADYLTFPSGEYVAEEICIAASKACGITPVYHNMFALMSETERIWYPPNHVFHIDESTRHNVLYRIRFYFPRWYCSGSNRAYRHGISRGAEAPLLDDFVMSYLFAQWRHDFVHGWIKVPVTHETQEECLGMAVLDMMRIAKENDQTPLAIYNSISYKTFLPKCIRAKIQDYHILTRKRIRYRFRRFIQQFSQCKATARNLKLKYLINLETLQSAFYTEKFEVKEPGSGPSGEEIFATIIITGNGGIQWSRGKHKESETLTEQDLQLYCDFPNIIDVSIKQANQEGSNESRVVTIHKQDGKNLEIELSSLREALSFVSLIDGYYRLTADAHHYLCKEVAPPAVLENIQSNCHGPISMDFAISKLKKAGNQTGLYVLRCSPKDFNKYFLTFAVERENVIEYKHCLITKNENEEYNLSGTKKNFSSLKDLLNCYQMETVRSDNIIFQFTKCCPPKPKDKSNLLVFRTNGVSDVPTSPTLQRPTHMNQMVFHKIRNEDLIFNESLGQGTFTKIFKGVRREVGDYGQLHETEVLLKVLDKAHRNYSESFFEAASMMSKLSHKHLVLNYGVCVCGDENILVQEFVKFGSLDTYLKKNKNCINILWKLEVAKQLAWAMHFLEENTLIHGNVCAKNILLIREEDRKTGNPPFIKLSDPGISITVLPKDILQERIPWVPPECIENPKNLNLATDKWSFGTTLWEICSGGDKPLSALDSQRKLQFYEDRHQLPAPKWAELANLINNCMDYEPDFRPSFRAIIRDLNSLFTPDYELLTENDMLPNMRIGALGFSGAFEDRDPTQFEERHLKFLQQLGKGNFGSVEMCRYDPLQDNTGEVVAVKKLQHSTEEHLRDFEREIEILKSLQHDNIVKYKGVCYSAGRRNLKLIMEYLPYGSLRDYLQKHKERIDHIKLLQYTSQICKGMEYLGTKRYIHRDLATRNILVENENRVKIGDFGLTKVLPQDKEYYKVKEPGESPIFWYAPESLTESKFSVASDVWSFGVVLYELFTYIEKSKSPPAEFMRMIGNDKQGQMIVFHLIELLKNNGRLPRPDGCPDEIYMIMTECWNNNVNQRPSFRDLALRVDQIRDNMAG
Procedure, shortened: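 pKi values derive from pIC50 via Cheng-Prusoff, with IC50 from a 4-parameter fit of percent-inhibition TR-FRET data using Tb-anti-pSTAT1 (pTyr701) detection. Compound, GST-JAK2 and GFP-STAT1 substrate were pre-incubated 1 h, then ATP started a 1 h ambient reaction (HEPES pH 7.5, 10 mM MgCl2, 1% DMSO).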

[2] = selectivity JAK3 over JAK1, difference of pKi
[3] = TALL-1, IL-2 stimulated pSTAT5, Tall-1 T cells
[4] = selectivity: difference of pKi JAK3 and pKi JAK1
[5] = TALL-1, IL-2 stimulated pSTAT5 in Tall-1 T cells
[6] = IL-2 stimulated pSTAT5, Tall-1 T cells
[7] = IL-2 stimulated pSTAT5 in Tall-1 T cells

SMILES | Ki (Tyk2) | Ki (JAK3) | JAK3 (pKi)-JAK1 (pKi) (JAK3; [2]) | Ki (JAK1) | IC50 [1, 3] | Ki (JAK2) | JAK3 (pKi)-JAK1 (pKi) (JAK3; [4]) | IC50 [1, 5] | Tyk 2 (pKi) (Tyk2) | JAK 3 (pKi) (JAK3) | JAK 1 (pKi) (JAK1) | Tall-1 (pIC50) [1, 6] | JAK 2 (pKi) (JAK2) | Tall-1 (pIC50) [1, 7]
C=CC(=O)N1CC[C@@H](Oc2cc(-c3ccc(O)cc3)cc3[nH]ncc23)C[C@@H]1C [Compound 12-30] | > 100 nM | < 0.1 nM | A (a value of 3 or above) | > 100 nM | < 31.6 nM | 1 to 10 nM |  |  |  |  |  |  |  | 
C=CC(=O)N1CC(C(C)Oc2nc(-c3ccc(O)cc3)nc3[nH]ncc23)C1 (stereo not drawn) [Compound 3-77] | > 100 nM | < 0.1 nM |  | > 100 nM |  | > 100 nM | A (a value of 3 or above) | 31.6 to 200 nM |  |  |  |  |  | 
CN(C)C/C=C/C(=O)N1CC(F)(COc2nc(-c3ccc(O)cc3)nc3[nH]ncc23)C1 [Compound 3-88] | > 100 nM | 0.1 to 1 nM |  | > 100 nM |  | > 100 nM | A (a value of 3 or above) | 31.6 to 200 nM |  |  |  |  |  | 
C=CC(=O)N1CC(COc2nc(-c3ccc(O)c(Cl)c3)nc3[nH]ncc23)C1 [Compound 3-38] | > 100 nM | < 0.1 nM |  | > 100 nM |  | > 100 nM | A (a value of 3 or above) | 31.6 to 200 nM |  |  |  |  |  | 
C=CC(=O)N1CCS[C@@H](C(=O)Nc2cc(-c3ccc(O)cc3)cc3[nH]ncc23)C1 [Compound 12-44] | > 100 nM | < 0.1 nM | A (a value of 3 or above) | > 100 nM | 31.6 to 200 nM | 10 to 100 nM |  |  |  |  |  |  |  | 
C=CC(=O)N1CC(CSc2cc(-c3ccc(O)c(F)c3)cc3[nH]ncc23)C1 [Compound 13-7] |  |  | A (a value of 3 or above) |  |  |  |  |  | E (a pKi value of 7 or below (Ki of 100 nM or above)) | A (a pKi value≥10 (Ki≤0.1 nM)) | E (a pKi value of 7 or below (Ki of 100 nM or above)) | B (a pIC50 value between 6.7 (included) and 7.5 (IC50 between 200 nM and 32 nM)) | D (a pKi value between 7 and 8 (Ki between 100 nM and 10 nM)) | 
C=CC(=O)N1CC(COc2cc(-c3ccc(O)cc3)nc3[nH]ncc23)C1 [Compound 10, 1-(3-(((6-(4-hydroxyphenyl)-1H-pyrazolo[3,4-b]pyridin-4-yl)oxy)methyl)azetidin-1-yl)prop-2-en-1-one] | > 100 nM | < 0.1 nM |  | > 100 nM |  | > 100 nM | A (a value of 3 or above) | 31.6 to 200 nM |  |  |  |  |  | 
C=CC(=O)N1CC[C@H](COc2cc(-c3ccc(O)cc3)cc3[nH]nnc23)C1 [Compound 23, (S)-1-(3-(((6-(4-hydroxyphenyl)-1H-benzo[d][1,2,3]triazol-4-yl)oxy)methyl)pyrrolidin-1-yl)prop-2-en-1-one] | > 100 nM | < 0.1 nM |  | > 100 nM |  | 10 to 100 nM | A (a value of 3 or above) | 31.6 to 200 nM |  |  |  |  |  | 
C=CC(=O)N1CC(CC)(COc2nc(-c3ccc(O)cc3)nc3[nH]ncc23)C1 [Compound 3-63] |  |  |  |  |  |  | A (a value of 3 or above) |  | E (a pKi value of 7 or below (Ki of 100 nM or above)) | A (a pKi value≥10 (Ki≤0.1 nM)) | E (a pKi value of 7 or below (Ki of 100 nM or above)) |  | E (a pKi value of 7 or below (Ki of 100 nM or above)) | B (a pIC50 value between 6.7 (included) and 7.5 (IC50 between 200 nM and 32 nM))
C=CC(=O)N1CC(C#N)(COc2nc(-c3ccc(O)cc3)cc3[nH]ncc23)C1 [Compound 3-103] | > 100 nM | < 0.1 nM |  | > 100 nM |  | 10 to 100 nM | A (a value of 3 or above) | < 31.6 nM |  |  |  |  |  | 
C=CC(=O)N1C2CCC1CC(Oc1cc(-c3ccc(O)c(Cl)c3)cc3[nH]ncc13)C2 (stereo not drawn) [Compound 10-4] |  |  | A (a value of 3 or above) |  |  |  |  |  | E (a pKi value of 7 or below (Ki of 100 nM or above)) | B (a pKi value between 9 and 10 (Ki between 1 nM and 0.1 nM)) | E (a pKi value of 7 or below (Ki of 100 nM or above)) | B (a pIC50 value between 6.7 (included) and 7.5 (IC50 between 200 nM and 32 nM)) | D (a pKi value between 7 and 8 (Ki between 100 nM and 10 nM)) | 
C=CC(=O)N1CCC[C@H](Oc2cc(-c3ccc(O)c(Cl)c3)nc3[nH]ncc23)C1 [Compound 8-14] |  |  | A (a value of 3 or above) |  |  |  |  |  | E (a pKi value of 7 or below (Ki of 100 nM or above)) | A (a pKi value≥10 (Ki≤0.1 nM)) | E (a pKi value of 7 or below (Ki of 100 nM or above)) | B (a pIC50 value between 6.7 (included) and 7.5 (IC50 between 200 nM and 32 nM)) | E (a pKi value of 7 or below (Ki of 100 nM or above)) | 
CN(C)C/C=C/C(=O)N1CC(CSc2cc(-c3ccc(O)c(Cl)c3)cc3[nH]ncc23)C1 [Compound 13-6] |  |  | A (a value of 3 or above) |  |  |  |  |  | E (a pKi value of 7 or below (Ki of 100 nM or above)) | A (a pKi value≥10 (Ki≤0.1 nM)) | E (a pKi value of 7 or below (Ki of 100 nM or above)) | A (a pIC50 value≥7.5 (IC50≤32 nM)) | E (a pKi value of 7 or below (Ki of 100 nM or above)) | 
CN(C)C/C=C/C(=O)N1CC(C)(COc2nc(-c3ccc(O)c(Cl)c3)cc3[nH]ncc23)C1 [Compound 3-95] |  |  |  |  |  |  | A (a value of 3 or above) |  | E (a pKi value of 7 or below (Ki of 100 nM or above)) | A (a pKi value≥10 (Ki≤0.1 nM)) | E (a pKi value of 7 or below (Ki of 100 nM or above)) |  | E (a pKi value of 7 or below (Ki of 100 nM or above)) | A (a pIC50 value≥7.5 (IC50≤32 nM))
